From patent publication US20040259909A1, “Treatment of fibromyalgia syndrome” (priority 2001, published 2004)
Where two headings read alike, the source gives them in different places.

Legend:
[1] = molecular target: T1, α7 nAChR subtype (Rattus norvegicus, UniProt Q05941); test: 125I-α-Bungarotoxin (BTX) binding to rat hippocampal membranes (Test A)
T1 construct: Rat hippocampi were homogenized in 20 volumes of cold homogenisation buffer; from tissue; host or cells: rat hippocampus membranes
Description: Test A—Assay for Affinity at α7 nAChR Subtype
Rat hippocampi were homogenized in 20 volumes of cold homogenisation buffer (HB): (in mM): tris(hydroxymethyl)aminomethane 50; MgCl2 1; NaCl 120; KCl 5: pH 7.4). The homogenate was centrifuged for 5 min at 1000 g, the supernatant was saved and the pellet re-extracted. The pooled supernatants were centrifuged for 20 min at 12000 g, washed, and re-suspended in HB.
(§1) Ki values were estimated using the general Cheng-Prusoff equation (A):
(§2) where a value of n=1 was used whenever nH<1.5 and a value of n−2 was used when nH≧1.5. Samples were assayed in triplicate and were typically ±5%. Ki values were determined using six or more drug concentrations.

[2] = molecular target: T2, 5-HT3 (Rattus norvegicus, UniProt P35563); test: [3H]zacopride binding to rat small-bowel muscularis membranes (Test B); conditions: 0.5 nM [3H]zacopride, read-out: Binding Affinity (Ki/nM) 5HT3
T2 construct: using rat small-bowel muscularis membranes suspended in 50 mM Tris; from tissue; host or cells: rat small-bowel muscularis membranes
T2 sequence (P35563 24-483): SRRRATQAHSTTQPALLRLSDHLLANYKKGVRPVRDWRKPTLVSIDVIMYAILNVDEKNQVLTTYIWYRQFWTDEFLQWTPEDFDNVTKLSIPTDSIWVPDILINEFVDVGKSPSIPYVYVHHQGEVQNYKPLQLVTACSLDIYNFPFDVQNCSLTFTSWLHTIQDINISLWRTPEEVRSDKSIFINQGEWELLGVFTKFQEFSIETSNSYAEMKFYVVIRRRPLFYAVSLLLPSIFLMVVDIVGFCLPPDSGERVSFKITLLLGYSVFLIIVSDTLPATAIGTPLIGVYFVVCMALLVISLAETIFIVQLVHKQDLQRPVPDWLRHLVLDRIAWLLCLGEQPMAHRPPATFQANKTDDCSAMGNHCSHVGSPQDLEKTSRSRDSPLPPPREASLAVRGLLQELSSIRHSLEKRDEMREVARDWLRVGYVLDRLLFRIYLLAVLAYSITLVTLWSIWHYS
Description: Test B—Assay for Affinity to the 5-HT3 nAChR Subtype
[^3]zacoipride binding. […] Incubation was continued for one hour.
Binding Data Analysis for Tests A and B
as §1, §2

[3] = Animal models of memory and cognition; conditions: in vivo
From the text: In a first embodiment of the invention a suitable α7 agonist is spiro[1-azabicyclo[2.2.2]octane-3,5′-oxazolidine-2′-one (Compound 1, Table 1). […] This compound is disclosed in U.S. Pat. No. 5,902,814 the disclosure of which is incorporated herein in its entirety by reference. This compound is active in animal models of memory and cognition.

[4] = molecular target: nAChR α7 (Rattus norvegicus, UniProt Q05941); test: Oocyte functional assay, two-electrode voltage clamp (Test C, FIG. 1); conditions: in words; currents in oocytes expressing nAChR α7 (FIG. 1)
Sequence of nAChR α7 (Q05941 23-502): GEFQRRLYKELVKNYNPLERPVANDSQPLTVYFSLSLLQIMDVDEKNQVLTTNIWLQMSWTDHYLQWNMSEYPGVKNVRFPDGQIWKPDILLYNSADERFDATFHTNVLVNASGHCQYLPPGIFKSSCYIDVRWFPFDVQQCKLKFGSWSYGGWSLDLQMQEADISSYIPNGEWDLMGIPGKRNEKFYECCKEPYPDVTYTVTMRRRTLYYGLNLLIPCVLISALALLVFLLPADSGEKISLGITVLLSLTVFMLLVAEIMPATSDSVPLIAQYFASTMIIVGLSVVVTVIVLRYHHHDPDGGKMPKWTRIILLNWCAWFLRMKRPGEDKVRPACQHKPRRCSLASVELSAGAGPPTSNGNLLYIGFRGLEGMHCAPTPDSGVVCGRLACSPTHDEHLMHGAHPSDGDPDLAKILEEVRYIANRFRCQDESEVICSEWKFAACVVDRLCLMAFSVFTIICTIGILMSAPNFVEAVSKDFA
Description: Xenopus oocytes Xenopus laevis frogs (Xenopus I, Kalamazoo, Mich.) were anesthetized using 0.15% tricaine. Oocytes were removed to OR2 solution: (in mM) 82 NaCl, 2.5 KCl, 5 HEPES, 1.5 NaH2PO4, 1 MgCl2, 0.1 EDTA, pH 7.4. The oocytes were defolliculated by incubation in 25 mL OR2 containing 0.2% collagenase 1A (SIGMA) two times for 60 min on a platform vibrating at 1 Hz and stored in Leibovitz's L-15 medium. Oocytes were injected the following day. Leibovitz's L-15 medium contained 50 μg/mL gentomycin, 10 units/mL penicillin, and 10 μg/mL streptomycin.
Preparation and injection of cRNA Rat nAChR α7 was cloned in-house (Luhowskyj). Non-polyadenylated cRNA was prepared from cDNA using mMessage mMachine SP6 (Ambion) according to the manufacturer's instructions.
Recording The external recording solution consisted of (in mM) 90 NaCl, 1 KCl, 1 MgCl2, 1 BaCl2, 5 HEPES, pH 7.4. […] Oocytes were impaled with two electrodes of 1-2 MΩ tip resistance when filled with 3M KCl. Recordings were begun when membrane potential became stable at potentials negative to −20 mV. Membrane potential was clamped at −80 mV unless otherwise noted. ACh, (−) was purchased from SIGMA.
Calculation of current amplitude and curve fitting Current amplitude was measured from baseline to peak. EC50's, maximal effect, and Hill slopes were estimated by fitting the data to the logistic equation using GraphPad Prism (GraphPad Software, Inc. San Diego, Calif.)
Data are fit by the logistic equation.

[5] = complex spatial memory task, animal models; cited from earlier work
[6] = fibromyalgia patients treated with tropisetron; cited from earlier work

T1 sequence (Q05941 23-502): as above

SMILES | activity at the α7 receptor [4] | antagonism of spatial navigation impairment [5] | other results
O=C(NC1CN2CCC1CC2)c1cc(-c2ccccc2)cs1 (stereo not shown) [Compound 3, N-(1-azabicyclo[2.2.2]oct-3-yl)(4-phenylthiophene-2-carboxamide)] | – | – | Ki [1]: 1.6 nM; Ki [2]: 20000 nM
O=C1NC[C@]2(CN3CCC2CC3)O1 [Compound 1, spiro[1-azabicyclo[2.2.2]octane-3,5′-oxazolidine-2′-one] | selective α7 agonist | – | activity in animal models of memory and cognition [3]: active
c1cnc2c(c1)C[C@@]1(CN3CCC1CC3)O2 [Compound 2, spiro[1-azabicyclo[2.2.2]octane-3,2′-(3′H)-furo[2,3-b]pyridine]] | – | – | Ki ([1]; [125I]α-BTX 5 nM, rat hippocampal membranes, read-out: Binding Affinity (Ki/nM) α7): 14 nM
Cc1nccn1CC1CCc2c(c3ccccc3n2C)C1=O (stereo not shown) [ondansetron] | lacked activity | not | –
CN1[C@@H]2CC[C@H]1C[C@@H](OC(=O)c1c[nH]c3ccccc13)C2 [tropisetron] | potent and selective partial agonist | antagonize spatial navigation impairment | reduction in fibromyalgia symptoms [6]: statistically significant reduction in their symptoms
